From patent publication US11596692B1 (Incyte Corporation, priority 2018, dated 2023)
Like-named read-outs stand apart in the source and are kept apart here. Each block holds one compound with its values, some of them ahead of it.

What was measured:
[1] = test system: IRF3 activation in PD-L1 low HEK293T STING reporter cell line; test: IRF3 activation in HEK293T STING reporter cells, low PD-L1; type: cell-based, human; conditions: 20 hours, read-out: IRF Activation EC50 (nM), Low PD-L1
Description: (§1) HEK293T STING reporter cell line was purchased from Invivogen and expressed low level of PD-L1. This cell line was then engineered at Incyte Research Institute to overexpress human PD-L1. Both PD-L1 high and PD-L1 low HEK293T cell lines were plated at 100,000 cells/100 μL/well in 10% fetal calf serum-containing DMEM culture medium in a 96-well flat bottom plate. Serial dilutions of PD-L1 small molecule-conjugated STING agonists were then added to the corresponding wells, and incubated for 20 hours at 37° C. In a competition study setting, 1 μM of a PD-L1 small molecule was added in the corresponding wells to compete with the binding of PD-L1 small molecule-conjugated STING agonists. At the end of the incubation, the culture supernatants were carefully removed from each well, and the amount of IRF3 activation was determined by adding Quanti-Blue substrate in accordance with the manufacturer's protocol.
(§2) 293T-Dual hSTING-R232 (ISG/KI-IFNb) cells that were generated from 293T-Dual Null (ISG/KI-IFNb) cells by stable transfection of the R232 isoform of human STING were purchased from Invivogen (Invivogen #293d-r232).
(§3) This cell line expresses an ISRE-inducible SEAP (secreted embryonic alkaline phosphatase) reporter construct, which monitors the activation of interferon regulatory factor (IRF) and its binding to ISRE (IFN-stimulated response elements). These reporter cells express low level of PD-L1. Human PD-L1 was then overexpressed in these cells through stable transfection.
(§4) These 293T-Dual hSTING-R232 reporter cells as well as293T-Dual hSTING-R232 reporter cells overexpressing huPD-L1 were treated with various concentrations of STING compounds for 20 hours. After 20 hours, interferon regulatory factor (IRF) activity was assessed by measuring SEAP levels in the supernatant using QUNTI-Blue. EC50 values were generated by curve fit in Prism software.

[2] = biological target: T1, PD-L1 (Homo sapiens (Human), UniProt Q9NZQ7); test: PD-L1 surface levels on HEK293T STING reporter cells, high PD-L1; type: cell-based
Description: To determine PD-L1 expression on HEK cells after treatment of PD-L1-small molecule conjugated STING agonists, cells were harvested at 20 hours post-treatment. Single cell suspensions were then stained with phycoerythrin-conjugated anti-PD-L1 antibody (BD Bioscience), and the PD-L1 expression were then analyzed by flow cytometry. Mean fluorescence intensity was used as the relative level of surface PD-L1 expression on cells (FIG. 1 and Table 6).
Also, cells were stained with PE-conjugated anti-human PD-L1 antibody to determine surface PD-L1 expression. Cell acquisition was performed on BD LSRFortessa X-20 (BD Biosciences). Data was analyzed using FlowJo software. IC50 values were calculated using Prism Software.

[3] = test system: IRF3 activation in PD-L1 high HEK293T STING reporter cell line; test: IRF3 activation in HEK293T STING reporter cells, high PD-L1; type: cell-based, human; conditions: for EC50: 20 hours; for Potency shift: with compound P27 (1 μM) versus no competition
Description: as §1, §2, §3, §4

[4] = biological target: T1, PD-L1; test: Indirect whole blood PD-L1 internalization assay; type: cell-based; conditions: interferon γ, 18 hours, CD14+ gated
Description: To determine PD-L1 internalization in human whole blood, normal human blood (Biological Specialty Corp, Colmar. Pa.) was incubated in the presence or absence of a concentration range of test compounds and 1 ng/ml human interferon γ (R&D Systems Inc. Minn. Minn.) in a 96 well round bottom plate (Corning, Corning, N.Y.) for 18 hours at 37° C. Blood was then transferred into 96 well “2 ml Assay Block” (Corning, Corning N.Y.) and stained with PD-L1 (MIH1, eBioscience; or BD Biosciences San Jose, Calif.), CD14 (Life Technologies, Carlsbad, Calif.) for 30 minutes in the dark at room temperature. Whole Blood/red cells were lysed/fixed (lysis buffer BD Biosciences) for 5 minutes at 37° C. in dark and then centrifuged at 1600 RPM for 5 minutes and cells were transferred into 96 well round bottom plates (Corning). Cells were gated on CD14+ (BD Biosciences) and PD-L1 expression determined by mean fluorescence intensity (MFI) (BD LSRFortessa™ X-20). IC50 determination was performed by fitting the curve of compound percent inhibition versus the log of the compound concentration using the GraphPad Prism 7.0 software.

[5] = test system: IRF3; test: IRF3 activation assay in THP-1 Dual cells; type: cell-based; conditions: Homo sapiens, THP-1, Table 4A; read-out: THP1 IRF3 EC50
Summary of the method: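 THP-1 Dual cells (100,000/well) were treated with serially diluted compound for 24 h at 37° C, 5% CO2. IRF3 reporter activity in supernatant was read with QUANTI-Blue as absorbance at 620-655 nm after 2 h, with untreated cells as negative control. EC50 came from fitting percent control activity against log concentration.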

[6] = high PD-L1 cells, read-out: IRF Activation EC50 (nM), High PD-L1
[7] = no competition, read-out: IRF Activation EC50 (nM), No competition
[8] = read-out: IRF Activation EC50 (nM), With compound P27 (1 μM), competition with compound P27 1 μM

T1 sequence (Q9NZQ7 19-290): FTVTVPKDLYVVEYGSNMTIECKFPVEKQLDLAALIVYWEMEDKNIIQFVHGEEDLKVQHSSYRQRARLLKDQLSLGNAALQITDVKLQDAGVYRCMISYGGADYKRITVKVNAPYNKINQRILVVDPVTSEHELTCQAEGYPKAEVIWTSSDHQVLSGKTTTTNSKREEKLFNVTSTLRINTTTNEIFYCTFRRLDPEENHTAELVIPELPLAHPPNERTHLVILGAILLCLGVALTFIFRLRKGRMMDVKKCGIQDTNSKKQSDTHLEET

Structure (SMILES): CCn1nc(C)cc1C(=O)Nc1nc2cc(C(N)=O)cc(OC)c2n1C/C=C/Cn1c(NC(=O)c2cc(C)nn2CC)nc2cc(C(N)=O)cc(OCCCNC(=O)[C@@H](NC(=O)[C@H](CC(=O)O)NC(=O)[C@H](CC(=O)O)NC(=O)[C@H](CCCNC(=N)N)NC(=O)[C@H](CC(=O)O)NC(=O)CCCN3CCc4c(nc(C(=O)Nc5cccc(-c6cccc(NC(=O)c7nc8c(n7C)CCN(CCCC(=O)O)C8)c6Cl)c5Cl)n4C)C3)C(C)(C)C)c21 [Example 20]
EC50 [1]: 50 to 200 nM | IC50 [2]: < 0.05 µM | EC50 [3, 6]: < 50 nM

Structure (SMILES): CCn1nc(C)cc1C(=O)Nc1nc2cc(C(N)=O)cc(OCCCNC(=O)[C@H](CC(=O)O)NC(=O)[C@H](CC(=O)O)NC(=O)[C@H](CCCNC(=N)N)NC(=O)[C@H](CC(=O)O)NC(=O)CCCN3CCc4c(nc(C(=O)Nc5cccc(-c6cccc(NC(=O)c7nc8c(n7C)CCN(CCCC(=O)O)C8)c6Cl)c5Cl)n4C)C3)c2n1C/C=C/Cn1c2nc(-c3cc(C)nn3CC)ncc2c2cc(C(N)=O)cc(OCCCOC)c21 [Example 23]
EC50 [1]: 50 to 200 nM | IC50 [2]: < 0.05 µM | EC50 [3, 6]: < 50 nM

Structure (SMILES): CCn1nc(C)cc1C(=O)Nc1nc2cc(C(N)=O)cc(OC)c2n1C/C=C/Cn1c(NC(=O)c2cc(C)nn2CC)nc2cc(C(N)=O)cc(OCCCNC(=O)[C@H](CC(=O)O)NC(=O)[C@H](CC(=O)O)NC(=O)[C@H](CC(=O)O)NC(=O)[C@H](CC(=O)O)NC(=O)CCCN3CCc4c(nc(C(=O)Nc5cccc(-c6cccc(NC(=O)c7nc8c(n7C)CCN(CCCC(=O)O)C8)c6Cl)c5Cl)n4C)C3)c21 [Example 12]
EC50 [1]: 50 to 200 nM | EC50 [3, 6]: < 50 nM

IC50 [4]: < 0.1 µM
Structure (SMILES): Cc1c(-c2nc3cc(CN4CC[C@H](C(=O)O)C4)cc(C#N)c3o2)cccc1-c1cccc(NC(=O)c2nc3c(n2C)CCN(C)C3)c1Cl [Example P11]

Structure (SMILES): CCn1nc(C)cc1C(=O)Nc1nc2cc(C(N)=O)cc(OCCCNC(=O)CCNC(=O)OCc3ccc(NC(=O)[C@H](CCCNC(N)=O)NC(=O)[C@@H](NC(=O)Cn4cc(CCNC(=O)[C@H](CC(=O)O)NC(=O)[C@H](CC(=O)O)NC(=O)[C@H](CCCNC(=N)N)NC(=O)[C@H](CC(=O)O)NC(=O)CCCN5CCc6c(nc(C(=O)Nc7cccc(-c8cccc(NC(=O)c9nc%10c(n9C)CCN(CCCC(=O)O)C%10)c8Cl)c7Cl)n6C)C5)nn4)C(C)C)cc3)c2n1C/C=C/Cn1c2nc(-c3cc(C)nn3CC)ncc2c2cc(C(N)=O)cc(OC)c21 [Example 9]
EC50 [1]: 200 to 1000 nM | IC50 [2]: 0.05 to 0.2 µM | EC50 [3, 6]: < 50 nM

Structure (SMILES): CCn1nc(C)cc1C(=O)Nc1nc2cc(C(N)=O)cc(OC)c2n1C/C=C/Cn1c(NC(=O)c2cc(C)nn2CC)nc2cc(C(N)=O)cc(OCCCNC(=O)CCNC(=O)OCc3ccc(NC(=O)[C@H](CCCNC(N)=O)NC(=O)[C@@H](CC(=O)Cn4cc(CCNC(=O)[C@H](CC(=O)O)NC(=O)[C@H](CC(=O)O)NC(=O)[C@H](CCCNC(=N)N)NC(=O)[C@H](CC(=O)O)NC(=O)CCCN5CCc6c(nc(C(=O)Nc7cccc(-c8cccc(NC(=O)c9nc%10c(n9C)CCN(CCCC(=O)O)C%10)c8Cl)c7Cl)n6C)C5)nn4)C(C)C)cc3)c21 [Example 4]
EC50 [1]: 200 to 1000 nM | EC50 [3, 6]: < 50 nM | EC50 [3, 7]: < 50 nM | EC50 [3, 8]: 200 to 1000 nM | Potency shift [3]: >20

Structure (SMILES): CCn1nc(C)cc1C(=O)Nc1nc2cc(C(N)=O)cc(OC)c2n1C/C=C/Cn1c(NC(=O)c2cc(C)nn2CC)nc2cc(C(N)=O)cc(OCCCNC(=O)[C@H](CC(=O)O)NC(=O)[C@H](CC(=O)O)NC(=O)[C@H](CC(=O)O)NC(=O)[C@H](CC(=O)O)NC(=O)[C@H](CC(=O)O)NC(=O)[C@H](CC(=O)O)NC(=O)[C@H](CC(=O)O)NC(=O)CCCN3CCc4c(nc(C(=O)Nc5cccc(-c6cccc(NC(=O)c7nc8c(n7C)CCN(CCCC(=O)O)C8)c6Cl)c5Cl)n4C)C3)c21 [Example 14]
EC50 [1]: 50 to 200 nM | IC50 [2]: < 0.05 µM | EC50 [3, 6]: < 50 nM

Structure (SMILES): CCn1nc(C)cc1C(=O)Nc1nc2cc(C(N)=O)cc(OC)c2n1C/C=C/Cn1c(NC(=O)c2cc(C)nn2CC)nc2cc(C(N)=O)cc(OCCCNC(=O)[C@H](CCC(=O)O)NC(=O)[C@H](CCC(=O)O)NC(=O)[C@H](CCCNC(=N)N)NC(=O)[C@H](CCC(=O)O)NC(=O)CCCN3CCc4c(nc(C(=O)Nc5cccc(-c6cccc(NC(=O)c7nc8c(n7C)CCN(CCCC(=O)O)C8)c6Cl)c5Cl)n4C)C3)c21 [Example 19]
EC50 [1]: 50 to 200 nM | IC50 [2]: < 0.05 µM | EC50 [3, 6]: < 50 nM

Structure (SMILES): CCn1nc(C)cc1C(=O)Nc1nc2cc(C(N)=O)cc(OCCCNC(=O)OCCNC(=O)[C@H](CC(=O)O)NC(=O)[C@H](CC(=O)O)NC(=O)[C@H](CCCNC(=N)N)NC(=O)[C@H](CC(=O)O)NC(=O)CCCN3CCc4c(nc(C(=O)Nc5cccc(-c6cccc(NC(=O)c7nc8c(n7C)CCN(CCCC(=O)O)C8)c6Cl)c5Cl)n4C)C3)c2n1C/C=C/Cn1c2nc(-c3cc(C)nn3CC)ncc2c2cc(C(N)=O)cc(OC)c21 [Example 24]
EC50 [1]: < 50 nM | IC50 [2]: < 0.05 µM | EC50 [3, 6]: < 50 nM

Structure (SMILES): CCn1nc(C)cc1C(=O)Nc1nc2cc(C(N)=O)cc(OC)c2n1C/C=C/Cn1c(NC(=O)c2cc(C)nn2CC)nc2cc(C(N)=O)cc(OCCCNC(=O)[C@H](CC(=O)O)NC(=O)[C@H](CC(=O)O)NC(=O)[C@H](CCCCN)NC(=O)[C@H](CC(=O)O)NC(=O)CCCN3CCc4c(nc(C(=O)Nc5cccc(-c6cccc(NC(=O)c7nc8c(n7C)CCN(CCCC(=O)O)C8)c6Cl)c5Cl)n4C)C3)c21 [Example 18]
EC50 [1]: < 50 nM | IC50 [2]: < 0.05 µM | EC50 [3, 6]: < 50 nM

Structure (SMILES): CCn1nc(C)cc1C(=O)Nc1nc2cc(C(N)=O)cc(OC)c2n1C/C=C/Cn1c(NC(=O)c2cc(C)nn2CC)nc2cc(C(N)=O)cc(OCCCNC(=O)CCNC(=O)OCc3ccc(NC(=O)[C@H](CCCNC(N)=O)NC(=O)[C@@H](NC(=O)CCCN4CCc5c(nc(C(=O)Nc6cccc(-c7cccc(NC(=O)c8nc9c(n8C)CCN(CCCC(=O)N[C@@H](CC(=O)O)C(=O)O)C9)c7Cl)c6Cl)n5C)C4)C(C)C)cc3)c21 [Example 3]
EC50 [1]: 200 to 1000 nM | EC50 [3, 6]: < 50 nM | EC50 [3, 7]: < 50 nM | EC50 [3, 8]: 200 to 1000 nM | Potency shift [3]: >20

IC50 [4]: < 0.1 µM
Structure (SMILES): Cc1c(NC(=O)c2ccc(CNCCO)cn2)cccc1-c1cccc(NC(=O)c2ccc(CNCCO)cn2)c1Cl [Example P7]

Structure (SMILES): CCn1nc(C)cc1C(=O)Nc1nc2cc(C(N)=O)cc(OC)c2n1C/C=C/Cn1c(NC(=O)c2cc(C)nn2CC)nc2cc(C(N)=O)cc(OCCCNC(=O)[C@H](CC(=O)O)NC(=O)[C@H](CCCNC(=N)N)NC(=O)[C@H](CC(=O)O)NC(=O)[C@H](CC(=O)O)NC(=O)CCCN3CCc4c(nc(C(=O)Nc5cccc(-c6cccc(NC(=O)c7nc8c(n7C)CCN(CCCC(=O)O)C8)c6Cl)c5Cl)n4C)C3)c21 [Example 16]
EC50 [1]: < 50 nM | IC50 [2]: < 0.05 µM | EC50 [3, 6]: < 50 nM

EC50 [5]: ≤ 0.1 µM
Structure (SMILES): CCn1nc(C)cc1-c1ncc2c3cc(C(N)=O)cc(OCCCO)c3n(C/C=C/Cn3c4nc(-c5cc(C)nn5CC)ncc4c4cc(C(N)=O)cc(OCCCO)c43)c2n1 [Example S65, (E)-9,9′-(but-2-ene-1,4-diyl)bis(2-(1-ethyl-3-methyl-1H-pyrazol-5-yl)-8-(3-hydroxypropoxy)-9H-pyrimido[4,5-b]indole-6-carboxamide)]
